17 compounds from ChEMBL document CHEMBL4402545, “Subtype Selective γ-Aminobutyric Acid Type A Receptor (GABAAR) Modulators Acting at the Benzodiazepine Binding Site: An Update” (J Med Chem, 2020) can be followed below.

The target in experiment [1] is T1, Gamma-aminobutyric acid receptor subunit alpha-5 (Homo sapiens, UniProt P31644).
T1 sequence (P31644 whole entry): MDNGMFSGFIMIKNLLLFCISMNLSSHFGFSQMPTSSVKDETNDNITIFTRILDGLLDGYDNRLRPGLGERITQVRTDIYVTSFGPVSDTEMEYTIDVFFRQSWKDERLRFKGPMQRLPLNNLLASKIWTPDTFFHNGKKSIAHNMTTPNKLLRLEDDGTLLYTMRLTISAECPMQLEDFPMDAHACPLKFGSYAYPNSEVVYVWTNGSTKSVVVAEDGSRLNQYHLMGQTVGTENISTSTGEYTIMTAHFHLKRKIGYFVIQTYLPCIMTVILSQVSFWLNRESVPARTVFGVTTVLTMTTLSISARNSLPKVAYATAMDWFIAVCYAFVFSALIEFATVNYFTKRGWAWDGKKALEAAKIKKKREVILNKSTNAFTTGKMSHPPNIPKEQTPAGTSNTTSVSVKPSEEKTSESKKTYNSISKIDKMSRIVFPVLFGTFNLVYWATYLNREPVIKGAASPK
The experiment is described as follows: Binding affinity to GABA-A alpha5 (unknown origin).

For experiment [2], the target named is T2, Gamma-aminobutyric acid receptor subunit alpha-3 (Homo sapiens, UniProt P34903).
T2 sequence (P34903 whole entry): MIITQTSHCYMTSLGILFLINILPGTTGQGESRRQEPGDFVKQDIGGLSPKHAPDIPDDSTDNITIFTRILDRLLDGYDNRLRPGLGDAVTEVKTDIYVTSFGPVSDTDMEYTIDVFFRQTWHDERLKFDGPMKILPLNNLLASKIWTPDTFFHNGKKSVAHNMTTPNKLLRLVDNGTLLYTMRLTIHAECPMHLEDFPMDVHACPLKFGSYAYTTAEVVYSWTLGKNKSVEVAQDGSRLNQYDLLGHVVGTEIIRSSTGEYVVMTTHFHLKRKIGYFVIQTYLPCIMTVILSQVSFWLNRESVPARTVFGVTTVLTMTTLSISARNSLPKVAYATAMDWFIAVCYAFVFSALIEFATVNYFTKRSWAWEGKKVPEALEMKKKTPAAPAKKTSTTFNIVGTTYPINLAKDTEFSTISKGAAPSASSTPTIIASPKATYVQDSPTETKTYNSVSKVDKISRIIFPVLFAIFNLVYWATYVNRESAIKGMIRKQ
Kind of experiment: Binding affinity to GABA-A alpha3 (unknown origin).

For experiment [3], the target named is T3, Gamma-aminobutyric acid receptor subunit alpha-1 (Homo sapiens, UniProt P14867).
T3 sequence (P14867 whole entry): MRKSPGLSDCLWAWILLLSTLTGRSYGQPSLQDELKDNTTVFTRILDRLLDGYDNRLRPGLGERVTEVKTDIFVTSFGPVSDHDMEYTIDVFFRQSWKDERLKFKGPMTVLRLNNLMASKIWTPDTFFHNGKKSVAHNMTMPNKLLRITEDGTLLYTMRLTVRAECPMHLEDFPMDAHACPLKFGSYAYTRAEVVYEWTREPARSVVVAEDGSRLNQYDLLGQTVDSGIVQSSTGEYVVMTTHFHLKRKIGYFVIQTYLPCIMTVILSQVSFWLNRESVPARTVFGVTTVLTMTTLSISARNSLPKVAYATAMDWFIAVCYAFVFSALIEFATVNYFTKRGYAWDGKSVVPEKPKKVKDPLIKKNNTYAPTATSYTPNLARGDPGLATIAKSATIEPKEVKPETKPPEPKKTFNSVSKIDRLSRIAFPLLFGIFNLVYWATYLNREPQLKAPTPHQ
The experiment is described as follows: Binding affinity to GABA-A alpha1 (unknown origin).

Experiment [4] has as its target T4, Gamma-aminobutyric acid receptor subunit alpha-1 (Homo sapiens) (UniProt P14867).
T4 sequence (whole entry): T3 sequence (P14867 whole entry)
The experiment is described as follows: Negative allosteric modulation of GABA-A alpha1 (unknown origin) assessed as reduction in DMCM induced current relative to control.

The target of experiment [5] is T5, Gamma-aminobutyric acid receptor subunit alpha-2 (Homo sapiens, UniProt P47869).
T5 sequence (P47869 whole entry): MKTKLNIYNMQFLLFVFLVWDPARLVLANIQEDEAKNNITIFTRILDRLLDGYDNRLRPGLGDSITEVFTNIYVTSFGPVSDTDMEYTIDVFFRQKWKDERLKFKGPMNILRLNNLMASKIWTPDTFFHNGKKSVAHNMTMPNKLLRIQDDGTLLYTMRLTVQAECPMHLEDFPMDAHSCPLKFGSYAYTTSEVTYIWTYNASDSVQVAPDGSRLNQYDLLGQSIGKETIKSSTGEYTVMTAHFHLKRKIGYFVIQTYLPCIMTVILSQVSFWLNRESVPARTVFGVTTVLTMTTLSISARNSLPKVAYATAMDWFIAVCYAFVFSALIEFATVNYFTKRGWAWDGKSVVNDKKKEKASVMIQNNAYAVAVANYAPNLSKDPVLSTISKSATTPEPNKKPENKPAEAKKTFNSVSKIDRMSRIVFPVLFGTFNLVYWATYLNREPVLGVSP
Kind of experiment: Binding affinity to GABA-A alpha2 (unknown origin).

Experiment [6] addresses T6, Gamma-aminobutyric acid receptor subunit alpha-2 (Homo sapiens) (UniProt P47869).
T6 sequence (whole entry): T5 sequence (P47869 whole entry)
Kind of experiment: Binding affinity to GABA-A alpha2 (unknown origin) assessed as reduction in DMCM induced current relative to control.

Experiment [7] has as its target T7, Gamma-aminobutyric acid receptor subunit alpha-3 (Homo sapiens) (UniProt P34903).
T7 sequence (whole entry): T2 sequence (P34903 whole entry)
Kind of experiment: Binding affinity to GABA-A alpha3 (unknown origin) assessed as reduction in DMCM induced current relative to control.

Experiment [8] addresses T8, Gamma-aminobutyric acid receptor subunit alpha-5 (Homo sapiens) (UniProt P31644).
T8 sequence (whole entry): T1 sequence (P31644 whole entry)
The experiment is described as follows: Binding affinity to GABA-A alpha5 (unknown origin) assessed as reduction in DMCM induced current relative to control.

The species named for experiment [9] is Homo sapiens. Kind of experiment: Selectivity ratio of Ki for binding affinity to GABAA alpha1beta3gamma2 (unknown origin) to Ki for binding affinity to GABAA alpha5beta3gamma2 (unknown origin).
The species named for experiment [10] is Homo sapiens. Kind of experiment: Selectivity ratio of Ki for binding affinity to GABAA alpha2beta3gamma2 (unknown origin) to Ki for binding affinity to GABAA alpha5beta3gamma2 (unknown origin).
The species entered for experiment [11] is Homo sapiens. The experiment is described as follows: Selectivity ratio of Ki for binding affinity to GABAA alpha3beta3gamma2 (unknown origin) to Ki for binding affinity to GABAA alpha5beta3gamma2 (unknown origin).
Experiment [12] concerns the target T4, Gamma-aminobutyric acid receptor subunit alpha-1 (Homo sapiens). Kind of experiment: Binding affinity to GABA-A alpha1 (unknown origin) assessed as increase in induced current relative to control.
For experiment [13], the target named is T7, Gamma-aminobutyric acid receptor subunit alpha-3 (Homo sapiens). The experiment is described as follows: Binding affinity to GABA-A alpha3 (unknown origin) assessed as increase in induced current relative to control.
The target of experiment [14] is T6, Gamma-aminobutyric acid receptor subunit alpha-2 (Homo sapiens). The experiment is described as follows: Binding affinity to GABA-A alpha2 (unknown origin) assessed as increase in induced current relative to control.
Experiment [15] has as its target T8, Gamma-aminobutyric acid receptor subunit alpha-5 (Homo sapiens). The experiment is described as follows: Binding affinity to GABA-A alpha5 (unknown origin) assessed as increase in induced current relative to control.
The target of experiment [16] is GABA-A receptor; alpha-5/beta-3/gamma-2 (Homo sapiens) (UniProt P18507+P28472+P31644). The experiment is described as follows: Negative allosteric modulation of GABAA alpha5beta3gamma2 (unknown origin) expressed in Xenopus laevis oocytes assessed as inhibition of GABA-induced current response at -60 mV holding potential by two electrode voltage clamp method relative to control. Format: cell-based. Details: scale not given: the % may be the effect or the level left. In general terms: Two-electrode voltage clamp is typically applied to oocytes expressing channels or transporters.

A word on the Ki: it is a dissociation constant, usually derived from enzyme kinetics or from competition with a known ligand. Take `CCCNC(=O)c1nnc2c(-c3cc(OC)ccc3OC)cccc2c1N` [AZD6280]: the Ki in [1] was found to be 1680 nM; in [2], 3.1 nM; in experiment [3] it was 0.5 nM.

For the compound `Cc1onc(-c2ccc(F)cc2)c1COc1ccc(C(=O)N2CCS(=O)(=O)CC2)cn1` [BASMISANIL], the Ki in [1] came to 4.7 nM; in [5], 502 nM; in experiment [2], 489 nM; in [3], 985 nM. Besides, the Efficacy was -4% in experiment [4], -6% in [6], -2% in [7] and -39% in experiment [8].

Consider `CCOC(=O)c1ncn2c1[C@@H]1CCCN1C(=O)c1cc(OC)ccc1-2`, for which the Ki in experiment [5], in [2] and in experiment [3] was 17 to 360 nM throughout. Also, the Ratio Ki in experiment [9], in experiment [10] and in experiment [11] was 50 to 100 each time.

`C#Cc1ccc2c(c1)C(c1ccccn1)=NCc1c(-c3cnco3)ncn1-2`: the results for the fold change (FC) in experiment [12], in experiment [13] and in experiment [14] were 0.35, 0.77 and 0.66, respectively.

Turning to `c1ccc(-c2nnc3c4c(c(OCc5ccccn5)nn23)C2CCC4CC2)cc1`, the results for the Ki in experiment [5], in [2] and in [3] were 26 nM, 12 nM and 71 nM, respectively.

In the case of `C#Cc1ccc2c(c1)C(c1ccccc1F)=N[C@H](C)c1c(C(=O)NC3CC3)ncn1-2`, the Ki in experiment [1] was 79 nM; in [5] it was 789 nM; in experiment [2] it was 480 nM; in experiment [3], 542 nM. Besides, the values for the fold change (FC) in experiment [12] and in [15] were 1.22 and 1.23, respectively. For the same compound, the Ratio Ki in [9], in experiment [10] and in [11] was 6 to 15 throughout.

As for `C#Cc1ccc2c(c1)C(c1ccccc1F)=N[C@H](C)c1c(C(=O)N(C)C)ncn1-2`, the Ki turned out to be 5000 nM in experiment [1], 30000 nM in experiment [5], 63000 nM in experiment [2] and 55000 nM in experiment [3]. Further, the fold change (FC) is 0.65 in experiment [12] and 1.46 in [15]. Besides, the Ratio Ki in experiment [9], in experiment [10] and in experiment [11] was 6 to 15 throughout.

As to `C#Cc1ccc2c(c1)C(c1ccccc1F)=N[C@@H](C)c1c(C(=O)OCC)ncn1-2`, the fold change (FC) in [12] was determined as 0.3; in [13], 0.31; in experiment [14] it was 0.57; in experiment [15], 1.19.

Consider `Clc1ccc2c(c1)-c1ncnn1Cc1c(Cl)ncn1-2`, for which the Ki in experiment [1] came out at 2 nM; in experiment [5], 24 nM; in experiment [2], 14 nM; in [3], 15 nM. Besides, the Efficacy in [4] was -3%; in experiment [6], -9%; in experiment [7], -11%; in experiment [8], -40%.

For the compound `COCc1ncn2c1CN(C)C(=O)c1cc(Cl)ccc1-2`, the Ki in experiment [1] was 6 nM; in experiment [5] it was 180 nM; in experiment [2], 328 nM; in experiment [3] it was 362 nM. In addition, the Efficacy in experiment [4] was 20%; in experiment [6], 15%; in experiment [7] it was 45%; in [8] it was -20%. Besides, the Ratio Ki in experiment [9], in [10] and in experiment [11] was 30 to 60 throughout. The Activity in [16] turned out to be 17%.

On to `C#Cc1ccc2c(c1)C(=O)N(C)Cc1c(C(=O)OCC)ncn1-2`, for which the Activity in experiment [16] amounted to 36%.

In the case of `C#Cc1ccc2c(c1)C(c1ccccc1F)=N[C@H](C)c1c(C(=O)OCC)ncn1-2`, the fold change (FC) was 0.25 in [12], 0.18 in experiment [13], 0.19 in experiment [14] and 1.19 in experiment [15].

Take `C#Cc1ccc2c(c1)C(c1ccccn1)=NCc1c(C(=O)OCC)ncn1-2`: the fold change (FC) is 0.27 in [12], 0.36 in experiment [13], 0.52 in experiment [14] and 0.23 in experiment [15].

Regarding `CC(C)(O)c1ccc2c(c1)ncn2-c1cccc(-c2cc(C#N)ccc2Cl)n1`, the fold change (FC) in [12] is -0.1; in experiment [13], 0.47; in experiment [14], 0.27; in experiment [15], 0.05.

With `FC(F)c1ncn2c1Cn1ncnc1-c1cc(Br)ccc1-2`, the Ki in experiment [1] was 4.6 nM; in experiment [5], 185 nM; in experiment [2], 80 nM; in [3], 174 nM. The Efficacy in experiment [4] was -3%; in experiment [6] it was -4%; in experiment [7], 2%; in experiment [8], -35%.

Consider `C#Cc1ccc2c(c1)C(c1ccccn1)=NCc1c(C(=O)OC)ncn1-2`, for which the Activity in experiment [12] amounted to 25%; in experiment [13], 129%; in experiment [14] it was 140%; in [15] it was 11%. Moreover, the Ki in [5] and in experiment [2] was 1000 nM each time.

For `C#Cc1ccc2c(c1)C(c1ccccc1F)=N[C@H](C)c1c(C(=O)NC)ncn1-2`, the Ki was determined as 55 nM in [1], 360 nM in [5], 660 nM in experiment [2] and 850 nM in [3]. In addition, the fold change (FC) in experiment [12] stood at 0.11; in experiment [13], 0.2; in experiment [14], 0.5; in [15] it was 2.48.
